From patent US20080027005A1, “PEPTIDES EFFECTIVE IN THE TREATMENT OF TUMORS AND OTHER CONDITIONS REQUIRING THE REMOVAL OR DESTRUCTION OF CELLS” (priority 2006, published 2008)
Where no end group is shown, it is not given here.

Tested on: prostate
Experiment: Effect of S05B Peptides on tissue at sites of injection: intraprostatic infusion in rats, histology and prostate volume
Assay type: in vivo, Male Sprague-Dawley rats
Conditions: for Histological findings in prostate of treated rats: rat prostate after intraprostatic infusion 1.0 mg/kg, controls minimal or absent changes; for Calculated Mean Volume (mm^3) At 7 Days / Reduction in Mean Volume Compared to Controls / Histological Changes of Cell Death at 24 Hours / Histological Changes of Cell Death at 72 Hours: rat prostate; for Calculated Mean Volume (mm^3) At 7 Days: 7 days after intraprostatic infusion 1.0 mg/kg, V=4/3π(D/2)^3 from mean cross-sectional diameters, PBS control 519; for Reduction in Mean Volume Compared to Controls: 7 days, compared to PBS injection only; for Histological Changes of Cell Death at 24 Hours / Histological Changes of Cell Death at 72 Hours: intraprostatic infusion 300 μl of 1 mg/mL in PBS pH 7.4 (1.0 mg/kg), H & E sections
Procedure: The purpose of this example was to determine the effect of S05B Peptides on tissue at sites of injection.
Male Sprague-Dawley rats (300 gram weight range) were anesthetized with ether and given one of the above S05B Peptides by intraprostatic infusion, a control injection of normal saline or no injection after open surgical visualization of the prostate. The injections consisted of 300 μl of the S05B Peptide 1 mg/mL in PBS pH 7.4. (1.0 mg/kg) (n=85). Rats were painlessly sacrificed after 24 hours (n=18), 72 hours (n=35) and 7 days (n=32). Prostate glands were dissected, fixed in 10% buffered formalin for 24 hours, embedded in paraffin, sectioned, and stained with H & E. For each animal the entire prostate gland was embedded and sectioned. All stained sections were examined histologically. For each prostate at least 2 histological sections were examined, and for each histological section from the 7 day group two cross-sectional diameters (D) at 90° from each other were measured (total of >8 measurements per prostate). The mean of the cross-sectional diameters (D) for each group was used to estimate volume according to V=4/3π(D/2)^3 and the mean volume calculated for each group. Histological changes were assessed on the following scale:
+++ Present, Moderate and Diffuse
++++ Present, Diffuse and Extensive

Row | Substance | Histological findings in prostate of treated rats | Calculated Mean Volume (mm^3) At 7 Days [mm^3] | Reduction in Mean Volume Compared to Controls [%] | Histological Changes of Cell Death at 24 Hours | Histological Changes of Cell Death at 72 Hours
1 | IDQQVL [S05B-4] | extensive cell death, necrosis, loss of glandular epithelium and atrophy | 358 | 31 | ++ | ++
2 | DQQVLS [S05B-2] | extensive cell death, necrosis, loss of glandular epithelium and atrophy | 289 | 44 | +++ | +++
3 | DQQVLSRI [S05B-3] | extensive cell death, necrosis, loss of glandular epithelium and atrophy | 289 | 44 | +++ | +++
